Literature values, collected in US11672781B2, “Metaxalone formulations” (PRANA BIOSCIENCES INC, priority 2018, dated 2023).

Details: independent of pH across the physiological pH range found in the GI tract

## Cc1cc(C)cc(OCC2CNC(=O)O2)c1 (stereo not shown) [metaxalone, 5-[(3,5-dimethylphenoxy)methyl]-2-oxazolidinone]
  Aqueous solubility: less than 50 ug/ml
